# Data taken from US12202829B2, “Heterocyclic compound” (FIMECS, Inc., priority 2018, dated 2025).
# Counter-ions that a name gives are not always drawn.
# Molecular target: T1, human XIAP_BIR3 domain purified protein (Homo sapiens, UniProt P98170)
# T1 construct: purchased R & D
# Assay: XIAP binding inhibitory activity, HTRF method with b-Smac ligand
# Details: for inhibition at 3 µM: test compound 3 μM, first symbol of the cell, read-out: XIAP binding inhibition rate when the concentration of the test compound is 3 μM; for IC50: second symbol of the cell, read-out: XIAP binding 50% inhibitory concentration (IC50 value)
# How it was run: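 HTRF competition: human XIAP BIR3 and C-terminally biotinylated Smac peptide AVPIAQK, each diluted to 90 nM before addition, in HEPES pH 7.5 buffer with NaCl, BSA, Triton X-100. Eu-cryptate anti-His/streptavidin-XL665 detection after ≥4 h at room temperature; inhibition % from 665/615 ratio versus no-compound control.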
# T1 sequence (P98170 252-356 limits assumed): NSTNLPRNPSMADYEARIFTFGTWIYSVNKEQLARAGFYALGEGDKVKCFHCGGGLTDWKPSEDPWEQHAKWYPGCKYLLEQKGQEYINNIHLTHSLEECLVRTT
SMILES,inhibition at 3 µM,IC50
"CN[C@@H](C)C(=O)N[C@H](C(=O)N1CCN(C(=O)c2cc3ccnn3cc2F)CC1)C1CCCCC1 [Example 6, (S)-N-((S)-1-cyclohexyl-2-(4-(6-fluoropyrazolo[1,5-a]pyridine-5-carbonyl)piperazin-1-yl)-2-oxoethyl)-2-(methylamino)propanamide]",> 25%,
"COc1ccc2cc(C(=O)N3CCN(C(=O)CN4C[C@@H](C)NC[C@@H]4CN4CCOC[C@H]4C)CC3)n(C)c2c1 [Example 36, 1-(4-(6-Methoxy-1-methyl-1H-indole-2-carbonyl)piperazin-1-yl)-2-((2R,5R)-5-methyl-2-(((R)-3-methylmorpholino)methyl)piperazin-1-yl)ethan-1-one]",> 75%,
"COc1ccc2cc(C(=O)N3CCN(C(=O)CN4C[C@@H](C)NC[C@@H]4CO)CC3)n(C)c2c1 [Example 39, 2-((2R,5R)-2-(Hydroxymethyl)-5-methylpiperazin-1-yl)-1-(4-(6-methoxy-1-methyl-1H-indole-2-carbonyl)piperazin-1-yl)ethan-1-one hydrochloride]",50 to 75%,
"COc1ccc2cc(C(=O)N3CCN(C(=O)CN4C[C@@H](C)NC[C@@H]4CN(C)CCOCCO)CC3)n(C)c2c1 [Example 40, 2-((2R,5R)-2-(((2-(2-Hydroxyethoxy)ethyl) (methyl)amino)methyl)-5-methylpiperazin-1-yl)-1-(4-(6-methoxy-1-methyl-1H-indole-2-carbonyl)piperazin-1-yl)ethan-1-one Hydrochloride]",> 75%,
"CN[C@@H](C)C(=O)N[C@H](C(=O)N1CCN(C(=O)c2cc3cc(F)c(F)cc3n2CCOCCOCCO)CC1)C1CCCCC1 [Example 47, (S)—N—((S)-1-Cyclohexyl-2-(4-(5,6-difluoro-1-(2-(2-(2-hydroxyethoxy)ethoxy)ethyl)-1H-indole-2-carbonyl)piperazin-1-yl)-2-oxoethyl)-2-(methylamino)propanamide]",,3 to 30 µM
"CN[C@@H](C)C(=O)N[C@H](C(=O)N1CCN(C(=O)c2c(OCCOCCOCCOCCO)c3cc(F)c(F)cc3n2C)CC1)C1CCCCC1 [Example 63, (S)-N-((S)-1-cyclohexyl-2-(4-(5,6-difluoro-3-(2-(2-(2-(2-hydroxyethoxy)ethoxy)ethoxy)ethoxy)-1-methyl-1H-indole-2-carbonyl)piperazin-1-yl)-2-oxoethyl)-2-(methylamino)propanamide]",25 to 50%,
"CN[C@@H](C)C(=O)N[C@H](C(=O)N1CCN(C(=O)c2cc3cc(F)ccc3n2CC(=O)NCCOCCOCCNC(=O)C[C@@H]2N=C(c3ccc(Cl)cc3)c3c(sc(C)c3C)-n3c(C)nnc32)CC1)C1CCCCC1 [Example 76, (S)-N-((S)-2-(4-(1-(14-((S)-4-(4-chlorophenyl)-2,3,9-trimethyl-6H-thieno[3,2-f][1,2,4]triazolo[4,3-a][1,4]diazepin-6-yl)-2,13-dioxo-6,9-dioxa-3,12-diazatetradecyl)-5-fluoro-1H-indole-2-carbonyl)piperazin-1-yl)-1-cyclohexyl-2-oxoethyl)-2-(methylamino)propanamide]",> 25%,
"CN[C@@H](C)C(=O)N[C@H](C(=O)N1CCN(C(=O)c2cc3cc(F)c(F)cc3n2C)C[C@H]1C)C1CCCCC1 [Example 56, (S)—N—((S)-1-Cyclohexyl-2-((R)-4-(5,6-difluoro-1-methyl-1H-indole-2-carbonyl)-2-methylpiperazin-1-yl)-2-oxoethyl)-2-(methylamino)propanamide Trifluoroacetate]",,3 to 30 µM
"CN[C@@H](C)C(=O)N[C@H](C(=O)N1CCN(C(=O)c2c(C(=O)NCCOCCOCCNC(=O)C[C@@H]3N=C(c4ccc(Cl)cc4)c4c(sc(C)c4C)-n4c(C)nnc43)c3ccc(OC)cc3n2C)CC1)C1CCCCC1 [Example 72, N-(2-(2-(2-(2-((S)-4-(4-Chlorophenyl)-2,3,9-trimethyl-6H-thieno[3,2-f][1,2,4]triazolo[4,3-a][1,4]diazepin-6-yl)acetamido)ethoxy)ethoxy)ethyl)-2-(4-((S)-2-cyclohexyl-2-((S)-2-(methylamino)propanamido)acetyl)piperazine-1-carbonyl)-6-methoxy-1-methyl-1H-indole-3-carboxamide Hydrochloride]",,< 0.3 µM
"CN[C@@H](C)C(=O)N[C@H](C(=O)N1CCN(C(=O)c2cc3cc(F)ccc3n2C)C[C@H]1C)C1CCCCC1 [Example 58, (S)—N—((S)-1-Cyclohexyl-2-((R)-4-(5-fluoro-1-methyl-1H-indole-2-carbonyl)-2-methylpiperazin-1-yl)-2-oxoethyl)-2-(methylamino)propanamide Trifluoroacetate]",,0.3 to 3 µM

# Second part, the compound after the results:
inhibition at 3 µM,IC50,SMILES
50 to 75%,,"CN[C@@H](C)C(=O)N[C@H](C(=O)N1CCN(C(=O)c2c(C(=O)N(C)CC(=O)OC)c3ccc(OC)cc3n2C)CC1)C1CCCCC1 [Example 28, Methyl N-(2-(4-((S)-2-cyclohexyl-2-((S)-2-(methylamino)propanamido)acetyl)piperazine-1-carbonyl)-6-methoxy-1-methyl-1H-indole-3-carbonyl)-N-methylglycinate Hydrochloride]"
25 to 50%,,"CN[C@@H](C)C(=O)N[C@H](C(=O)N1CCN(C(=O)c2ccn3nccc3c2F)CC1)C1CCCCC1 [Example 5, (S)-N-((S)-1-cyclohexyl-2-(4-(4-fluoropyrazolo[1,5-a]pyridine-5-carbonyl)piperazin-1-yl)-2-oxoethyl)-2-(methylamino)propanamide]"
50 to 75%,,"CN[C@@H](C)C(=O)N[C@H](C(=O)N1CCN(C(=O)c2c(C(=O)N3CCC[C@@H]3COC)c3ccc(OC)cc3n2C)CC1)C1CCCCC1 [Example 30, (S)—N—((S)-1-Cyclohexyl-2-(4-(6-methoxy-3-((R)-2-(methoxymethyl)pyrrolidine-1-carbonyl)-1-methyl-1H-indole-2-carbonyl)piperazin-1-yl)-2-oxoethyl)-2-(methylamino)propanamide Hydrochloride]"
,3 to 30 µM,"CN[C@@H](C)C(=O)N[C@H](C(=O)N1CCN(C(=O)c2cc3cc(F)c(F)cc3n2CCOC)CC1)C1CCCCC1 [Example 54, (S)—N—((S)-1-Cyclohexyl-2-(4-(5,6-difluoro-1-(2-methoxyethyl)-1H-indole-2-carbonyl)piperazin-1-yl)-2-oxoethyl)-2-(methylamino)propanamide]"
> 75%,,"CN[C@@H](C)C(=O)N[C@H](C(=O)N1CCN(C(=O)c2cc3ccc(OC)cc3n2C)[C@@H](C)C1)C1CCCCC1 [Example 33, (S)—N—((S)-1-Cyclohexyl-2-((S)-4-(6-methoxy-1-methyl-1H-indole-2-carbonyl)-3-methylpiperazin-1-yl)-2-oxoethyl)-2-(methylamino)propanamide Hydrochloride]"
> 25%,,"CCCc1cc(C(=O)N2CCN(C(=O)[C@@H](NC(=O)[C@H](C)NC)C3CCCCC3)CC2)n(C)n1 [Example 10, (S)-N-((S)-1-cyclohexyl-2-(4-(1-methyl-3-propyl-1H-pyrazole-5-carbonyl)piperazin-1-yl)-2-oxoethyl)-2-(methylamino)propanamide]"
> 75%,,"CN[C@@H](C)C(=O)N[C@H](C(=O)N1CCN(C(=O)c2cc3cc(F)c(F)cc3n2C)CC1)C1CCCCC1 [Example 41, (S)—N—((S)-1-Cyclohexyl-2-(4-(5,6-difluoro-1-methyl-1H-indole-2-carbonyl)piperazin-1-yl)-2-oxoethyl)-2-(methylamino)propanamide]"
> 75%,,"CN[C@@H](C)C(=O)N[C@H](C(=O)N1CCN(C(=O)c2c(C(=O)NCCOCCOCCNC(=O)OCC3c4ccccc4-c4ccccc43)c3ccc(OC)cc3n2C)CC1)C1CCCCC1 [Example 38, (9H-Fluoren-9-yl)methyl (2-(2-(2-(2-(4-((S)-2-cyclohexyl-2-((S)-2-(methylamino)propanamido)acetyl)piperazine-1-carbonyl)-6-methoxy-1-methyl-1H-indole-3-carboxamido)ethoxy)ethoxy)ethyl)carbamate Hydrochloride]"
50 to 75%,,"CN[C@@H](C)C(=O)N[C@H](C(=O)N1CCN(C(=O)c2c(C(=O)N3CCC[C@H]3COC)c3ccc(OC)cc3n2C)CC1)C1CCCCC1 [Example 29, (S)—N—((S)-1-Cyclohexyl-2-(4-(6-methoxy-3-((S)-2-(methoxymethyl)pyrrolidine-1-carbonyl)-1-methyl-1H-indole-2-carbonyl)piperazin-1-yl)-2-oxoethyl)-2-(methylamino)propanamide Hydrochloride]"
50 to 75%,,"CN[C@@H](C)C(=O)N[C@H](C(=O)N1CCN(C(=O)c2c(C(=O)N(C)CCOC)c3ccc(OC)cc3n2C)CC1)C1CCCCC1 [Example 26, 2-(4-((S)-2-Cyclohexyl-2-((S)-2-(methylamino)propanamido)acetyl)piperazine-1-carbonyl)-6-methoxy-N-(2-methoxyethyl)-N,1-dimethyl-1H-indole-3-carboxamide Hydrochloride]"
50 to 75%,,"CN[C@@H](C)C(=O)N[C@H](C(=O)N1CCN(C(=O)c2c(C(=O)N3CC(OC)C3)c3ccc(OC)cc3n2C)CC1)C1CCCCC1 [Example 31, (S)—N—((S)-1-Cyclohexyl-2-(4-(6-methoxy-3-(3-methoxyazetidine-1-carbonyl)-1-methyl-1H-indole-2-carbonyl)piperazin-1-yl)-2-oxoethyl)-2-(methylamino)propanamide Hydrochloride]"
25 to 50%,,"CN[C@@H](C)C(=O)N[C@H](C(=O)N1CCN(C(=O)c2c(OCCOCCOCCO)c3cc(F)c(F)cc3n2C)CC1)C1CCCCC1 (stereo in doubt) [Example 62, (S)—N—((S)-1-Cyclohexyl-2-(4-(5,6-difluoro-3-(2-(2-(2-hydroxyethoxy)ethoxy)ethoxy)-1-methyl-1H-indole-2-carbonyl)piperazin-1-yl)-2-oxoethyl)-2-(methylamino)propanamide]"
